The subject of test [1] is multi-drug-resistant breast cancer cell line MDA-MB-231. Description: Cell growth assay on MDA-MB-231 cells. The format is cell-based. Conditions: for Magnitude of potentiation in combination with doxorubicin: MDA-MB-231, breast carcinoma; for IC50: Homo sapiens. On the procedure: (§1) Compositions were tested on CHOP-resistant G3 NHL cells that had been cultivated in RPMI medium for five days. Prior to assay, the cells were counted by haemocytometer and cell concentration standardized to 625,000 cells/ml. Test drugs were solubilized in 100% DMSO and then diluted to final assay concentration with 0.1M phosphate buffered saline (PBS) and a final DMSO concentration of 0.5%. Cells were added to assay plates containing the test drugs (rifabutin+148 ng/ml, 74 ng/ml, 37 ng/ml, or 0 ng/ml doxorubicin) and allowed to incubate for 96 hours at 37° C. and 5% CO2. The metabolic dye rezasurin was added to the wells of the assay plate at a final concentration of 20 μg/ml and the plates were incubated for an additional 24 hours. The plates were then read in a BMG Polarstar plate reader at wavelength (573-605) and the data plotted as OD versus increasing dilutions (i.e. decreasing total amounts) of rifabutin derivative concentration.
(§2) In these experiments, the following cell lines were used: CHOP-resistant NHL cell line G3, CHOP-sensitive NHL cell line CRL2631, the multi-drug resistant sarcoma cell line MES-SA-Dx5; multi-drug-resistant breast cancer cell line MDA-MB-231, multi-drug resistant ovarian carcinoma cell line SK-OV3, multi-drug resistant ovarian cancer cell line NCI/ADR-RES, drug-sensitive ovarian cancer cell line OVCAR-5, and multi-drug resistant ovarian cancer cell line OVCAR-3.
(§3) Additional cell lines used include: ovarian cancer OVCAR-8, T lymphoblastoid leukemia MOLT-4, dexamethasone-resistant multiple myeloma MM.1R, myeloid leukemia cells HL-60, osteosarcoma cells U-2 OS, and myeloma RPMI 8226.

The subject of test [2] is lymphoma cell line G3. Description: Cell growth assay (resazurin fluorescence) on CHOP-resistant G3 NHL cells. The format is cell-based, human. The note with it: for Magnitude of potentiation in combination with doxorubicin: G3, lymphoma B cells. On the procedure: as §1
Test [3] relates to multi-drug resistant ovarian cancer cell line OVCAR-3. Description: Cell growth assay on OVCAR-3 cells. The note with it: OVCAR-3, ovarian carcinoma. The format is cell-based. On the procedure:
as §1
(§4) In these experiments, the following cell lines were used: CHOP-resistant NHL cell line G3, CHOP-sensitive NHL cell line CRL2631, the multi-drug resistant sarcoma cell line MES-SA-Dx5; multi-drug-resistant breast cancer cell line MDA-MB-231, multi-drug resistant ovarian carcinoma cell line SK-OV3, multi-drug resistant ovarian cancer cell line NCI/ADR-RES, drug-sensitive ovarian cancer cell line OVCAR-5, and multi-drug resistant ovarian cancer cell line OVCAR-3. […]

The subject of test [4] is multi-drug resistant ovarian carcinoma cell line SK-OV3. Description: Cell growth assay on SK-OV3 cells. The format is cell-based, human. The note with it: SK-OV3, ovarian carcinoma. On the procedure: as §1, §4
Test [5] has as its system ROS in G3 lymphoma cells. Briefly: Intracellular ROS (CellROX, flow cytometry) in G3 cells. The format is cell-based, human. The note with it: 10 uM, FIG. 40. Here is the method:
Cells were then stained with the fluorescent ROS indicator, CellROX, and subjected to flow cytometry to quantitate total intracellular ROS.
The electron transport chain (ETC) is known to be a primary generator of ROS in the cell. Most of the ROS is generated by Complexes I and III of the ETC Inhibition of Complex I results in electrons piling up and leaking to react with oxygen to produce ROS.
All samples were analyzed at the same time in flow cytometry.

For test [6], the system named is multi-drug resistant ovarian cancer cell line NCI/ADR-RES. Description: Cell growth assay on NCI/ADR-RES cells. The format is cell-based. Conditions: NCI/ADR-RES, ovarian carcinoma. On the procedure:
as §1, §2, §3

Where [7] appears, read: analog alone, lymphoma cell line G3, read-out: IC50.
[8] abbreviates: with 1 μM doxorubicin, lymphoma cell line G3, read-out: IC50 (μM) with doxorubicin (1 μM).

Where two headings read alike, the source gives them in different places.

For “11-deoxy-11-imino-4-deoxy-3,4[2-spiro-[1- (ethylaminocarbonyl)-piperidin-4-yl]]-(1H)-imidazo-(2,5- dihydro)rifamycin S [RTI-82]”, the “Magnitude of potentiation in combination with doxorubicin” value (“Magnitude of potentiation” below) in test [1] is reported as “+++ (potentiation greater than 5 fold increase)”. Also, the IC50 in test [2] (setting [7]) is over 64 µM; in test [2] (setting [8]), 3.5 µM. Further, in test [2] (lymphoma cell line G3), the “Fold increase in potency over DOX alone” value amounted to 0.7 fold.
“4-deoxy-3,4[2-spiro-[1-(n-propyloxycarbonyl)-piperidin-4-yl]]- (1H)-imidazo-(2,5-dihydro)rifamycin S [RTI-78]”: the values for the IC50 in test [2] (setting [7]) and in test [2] (setting [8]) were 58 µM and 0.08 µM, respectively. Besides, in test [2] (lymphoma cell line G3), the “Fold increase in potency over DOX alone” value is on record as 29.5 fold.
In the case of `CC[C@]1(O)C[C@@H]2CN(CCc3c([nH]c4ccccc34)[C@@](C(=O)OC)(c3cc4c(cc3OC)N(C)[C@H]3[C@@](O)(C(=O)OC)[C@H](OC(C)=O)[C@]5(CC)C=CCN6CC[C@]43[C@@H]65)C2)C1` [Vinblastine, vinblastine], the IC50 in test [2] (Homo sapiens, therapeutic drug alone, G3, read-out: IC50) was determined as 8 µM; in test [2] (Homo sapiens, therapeutic drug with Rifabutin, G3, read-out: IC50 (μM) with Rifabutin) it was 1 µM. In addition, the “Fold increase in potency” value in test [2] (with vs without Rifabutin, G3) is on record as 8.0 fold.
Turning to `COC1C=COC2(C)Oc3c(C)c(O)c4c(c3C2N)C2=NC3(CCN(C(=O)NCC(C)C)CC3)NC2=C(NC(=O)C(C)=CC=CC(C)C(O)C(C)C(O)C(C)C(OC(C)=O)C1C)C4=O` (stereo not shown) [RTI-183, 11-deoxy-11-amino-4-deoxy-3,4[2-spiro-[1-(isobutylaminocarbonyl)-piperidin-4-yl]]-(1H)-imidazo-(2,5-dihydro)rifamycin S], the “Magnitude of potentiation” value in test [3] is listed as “+ (potentiation between 1.2 to 2.0 fold increase)”. Also, the IC50 was over 64 µM in test [2] (setting [7]) and 5.19 µM in test [2] (setting [8]). In addition, the “Fold increase in potency over DOX alone” value in test [2] (lymphoma cell line G3) was found to be 0.5 fold.
For “11-deoxy-11-imino-4-deoxy-3,4[2-spiro-[1-(2-methoxyethyl)- piperidin-4-yl]]-(1H)-imidazo-(2,5-dihydro)rifamycin S [RTI-51]”, the “Magnitude of potentiation” value in test [3] and in test [4] was “+ (potentiation between 1.2 to 2.0 fold increase)” each time. For the same compound, the values for the IC50 in test [2] (setting [7]) and in test [2] (setting [8]) were over 64 µM and 3.3 µM, respectively. The “Fold increase in potency over DOX alone” value in test [2] (lymphoma cell line G3) is given as 0.7 fold.
For `CC(=O)OCOC(=O)CN(CC(=O)OCOC(C)=O)c1ccccc1OCCOc1ccccc1N(CC(=O)OCOC(C)=O)CC(=O)OCOC(C)=O` [BAPTA-AM], the ROS levels entry in test [5] is “induced ROS”.
Same read-out and setting: as for `C=C(C)[C@H]1Cc2c(ccc3c2O[C@@H]2COc4cc(OC)c(OC)cc4[C@@H]2C3=O)O1` [Rotenone, rotenone], the entry is “induced ROS”.
In the case of `Nc1ccn([C@@H]2O[C@H](CO)[C@@H](O)C2(F)F)c(=O)n1` [Gemcitabine, gemcitabine], the half-maximal inhibitory concentration (IC50) in test [1] (therapeutic drug alone, MDA-MB-231, read-out: IC50) was over 32 µM; in test [1] (therapeutic drug with Rifabutin, MDA-MB-231, read-out: IC50 (μM) with Rifabutin) it was 4.83 µM. For the same compound, the “Fold increase in potency” value in test [1] (with vs without Rifabutin, MDA-MB-231) is over 6.6 fold.
For the compound `COC1C=COC2(C)Oc3c(C)c(O)c4c(c3C2N)C2=NC3(CCN(CC(C)C)CC3)NC2=C(NC(=O)C(C)=CC=CC(C)C(O)C(C)C(O)C(C)C(OC(C)=O)C1C)C4=O` (stereo not shown) [RTI-181, 11-deoxy-11-amino-4-deoxy-3,4[2-spiro-[1-(2-methylpropyl)-piperidin-4-yl]]-(1H)-imidazo-(2,5-dihydro)rifamycin S], the entries for the “Magnitude of potentiation” value in test [3], in test [2] and in test [4] were “+ (potentiation between 1.2 to 2.0 fold increase)”, “+++ (potentiation greater than 5 fold increase)” and “+++ (potentiation greater than 5 fold increase)”, respectively. Further, the results for the 50% inhibitory concentration (IC50) in test [2] (setting [7]) and in test [2] (setting [8]) were 52 µM and 0.43 µM, respectively. Moreover, the “Fold increase in potency over DOX alone” value in test [2] (lymphoma cell line G3) was found to be 5.5 fold.
Turning to `COC1C=COC2(C)Oc3c(C)c(O)c4c(c3C2=N)C2=NC3(CCN(C(=O)NCC(C)C)CC3)NC2=C(NC(=O)C(C)=CC=CC(C)C(O)C(C)C(O)C(C)C(OC(C)=O)C1C)C4=O` (stereo not shown) [RTI-182, 11-deoxy-11-imino-4-deoxy-3,4[2-spiro-[1-(isobutylaminocarbonyl)-piperidin-4-yl]]-(1H)-imidazo-(2,5-dihydro)rifamycin S], the “Magnitude of potentiation” value in test [1] is listed as “++ (potentiation between 2.1 to 5 fold increase)”; in test [3] it was “+ (potentiation between 1.2 to 2.0 fold increase)”; in test [2] it was “+ (potentiation between 1.2 to 2.0 fold increase)”; in test [4], “++ (potentiation between 2.1 to 5 fold increase)”. The results for the IC50 in test [2] (setting [7]) and in test [2] (setting [8]) were 62 µM and 1.2 µM, respectively. The “Fold increase in potency over DOX alone” value in test [2] (lymphoma cell line G3) is given as 2.0 fold.
With `COC1C=COC2(C)Oc3c(C)c(O)c4c(c3C2=N)C2=NC3(CCN(CCN5CCOCC5)CC3)NC2=C(NC(=O)C(C)=CC=CC(C)C(O)C(C)C(O)C(C)C(OC(C)=O)C1C)C4=O` (stereo not shown) [RTI-53, 11-deoxy-11-imino-4-deoxy-3,4[2-spiro-[1-(2-morpholinoethyl)-piperidin-4-yl]]-(1H)-imidazo-(2,5-dihydro)rifamycin S], the “Magnitude of potentiation” value in test [3] and in test [4] was “+ (potentiation between 1.2 to 2.0 fold increase)” each time. For the same compound, the values for the IC50 in test [2] (setting [7]) and in test [2] (setting [8]) were over 64 µM and 11.8 µM, respectively. In test [2] (lymphoma cell line G3), the “Fold increase in potency over DOX alone” value was 0.2 fold.
With `COC1C=COC2(C)Oc3c(C)c(O)c4c(c3C2=O)C2=NC3(CCN(C(=O)NCC(C)C)CC3)NC2=C(NC(=O)C(C)=CC=CC(C)C(O)C(C)C(O)C(C)C(OC(C)=O)C1C)C4=O` (stereo not shown) [RTI-102, 4-deoxy-3,4[2-spiro-[1-(isobutylaminocarbonyl)-piperidin-4-yl]]-(1H)-imidazo-(2,5-dihydro)rifamycin S], the “Magnitude of potentiation” value is reported as “++ (potentiation between 2.1 to 5 fold increase)” in test [2] and “+++ (potentiation greater than 5 fold increase)” in test [4]. The values for the IC50 in test [2] (setting [7]) and in test [2] (setting [8]) were over 64 µM and 0.95 µM, respectively. Moreover, the “Fold increase in potency over DOX alone” value in test [2] (lymphoma cell line G3) amounted to 2.5 fold.
Consider `COC1C=COC2(C)Oc3c(C)c(O)c4c(c3C2O)C2=NC3(CCN(CC(C)C)CC3)NC2=C(NC(=O)C(C)=CC=CC(C)C(O)C(C)C(O)C(C)C(OC(C)=O)C1C)C4=O` (stereo not shown) [RTI-174, 11-deoxy-11-hydroxy-4-deoxy-3,4[2-spiro-[1-(2-methylpropyl)-piperidin-4-yl]]-(1H)-imidazo-(2,5-dihydro)rifamycin S], for which the “Magnitude of potentiation” value in test [3] was “+ (potentiation between 1.2 to 2.0 fold increase)”; in test [2], “++ (potentiation between 2.1 to 5 fold increase)”; in test [4] it was “+ (potentiation between 1.2 to 2.0 fold increase)”; in test [6] it was “+ (potentiation between 1.2 to 2.0 fold increase)”. The 50% inhibitory concentration (IC50) in test [2] (setting [7]) was determined as 51 µM; in test [2] (setting [8]) it was 0.64 µM. In addition, in test [2] (lymphoma cell line G3), the “Fold increase in potency over DOX alone” value was determined as 3.7 fold.
Consider `O=c1[nH]c2ccccc2n1C1CCN(Cc2ccc(-c3nc4cc5[nH]cnc5cc4nc3-c3ccccc3)cc2)CC1` [Akt Inhibitor VIII], for which the CHOP resistance result in test [2] (G3 cells, varying amounts of Akt Inhibitor VIII) is recorded as “dose-dependent reversal of CHOP resistance”.

Source of the values: patent US20150017673A1, “COMPOSITIONS AND METHODS FOR DRUG-SENSITIZATION OR INHIBITION OF A CANCER CELL” (priority 2012, published 2015).
